In US20240360060A1, “6-HYDROXY-CANNABIDIOL-C4” (GW RESEARCH LIMITED, priority 2021, published 2024):
Several values for one entry are separate records, joined by “and”; a condition that tells them apart may be missing. Identical values can stand only once. Like-named read-outs stand apart in the source and are kept apart here.

What was measured:
[1] = test system: mouse model of generalised seizure (tonic hind limb extensor convulsions); assay: mini-MEST (maximal electroshock seizure threshold) test in the mouse; settings: 30 min post dose
Procedure: The maximal electroshock seizure threshold (MEST) test is widely utilized preclinically to evaluate pro- or anti-convulsant properties of test compounds (Loscher et al., 1991).
In the MEST test the ability of a drug to alter the seizure threshold current required to induce hind limb tonic extensor convulsions is measured according to an “up and down” method of shock titration (Kimball et al., 1957). An increase in seizure threshold is indicative of anti-convulsant effect.
The ability of a test compound to alter the stimulus intensity, expressed as current (mA), required to induce the presence of tonic hind limb extensor convulsions, is assessed in the MEST.
Naïve mice were acclimatized to the procedure room in their home cages for up to 7 days, with food and water available ad libitum.
All animals were weighed at the beginning of the study and randomly assigned to treatment groups based on a mean distribution of body weight across groups.
The first animal within a treatment group was given a shock at the expected or estimated CC50 current. For subsequent animals, the current was lowered or raised depending on the convulsions outcome from the preceding animal in log scale intervals.
Data generated from each treatment group were used to calculate the CC50±SEM values for the treatment group.
The test compound, described herein as Compound I, are as shown as Formula I. Test compound was administered at 150 mg/kg (i.p.) in a 1:2:17 ethanol:solutol:0.9% saline formulation.
The data for each treatment group were recorded as the number of +'s and 0's at each current level employed and this information is then used to calculate the CC50 value (current required for 50% of the animals to show seizure behaviour)±standard error.
Test compound effects were also calculated as percentage change in CC50 from the vehicle control group.
Significant difference between drug-treated animals and controls were assessed according to Litchfield and Wilcoxon (1949).

[2] = test system: MES model of generalised seizure; settings: earlier filing WO 2020/104796; cited from earlier work
[3] = Bioanalysis of Compound I in plasma and brain (UPLC-MS/MS); assay type: in vivo, mice; settings: 150 mg/kg i.p., 30 min post-dose, mouse; for concentration at 30 min: ip, 150 mg/kg
Procedure: Each animal was humanely killed immediately after production of a convulsion by destruction of the brain from striking the cranium, followed by the confirmation of permanent cessation of the circulation from decapitation under The Humane Killing of Animals under Schedule 1 to the Animals (Scientific Procedures) Act 1986. Terminal blood and brain collection were performed following decapitation.
Blood was collected in Lithium-heparin tubes and centrifuged at 4° C. for 10 minutes at 1500×g. The resulting plasma was removed (>100 μL) and split into 2 aliquots of 0.5 mL Eppendorf tubes containing 10 μL of ascorbic acid (100 mg/mL) for stabilisation. Brains were removed, washed in saline and halved. Each half was placed into separate 2 mL screw cap cryovials, weighed and frozen on cardice.
Bioanalysis experiments were carried out to determine the quantitative measurement of Compound I in plasma and brain.
Six mice were dosed with Compound I at 150 mg/kg via intraperitoneal (i.p) injection. Sample analysis was performed 30 min post-dose using a sample volume of 40 μL. Following addition of internal standard (in acetonitrile) and Isopropanol samples were protein precipitated by addition of acetonitrile. Samples were centrifuged and supernatant transferred to a clean 96-well plate (with addition of Tween to minimise non-specific binding to plate materials), evaporated to dryness then reconstituted in suitable solvent. The extracts quantified by ultraperformance liquid chromatography-tandem mass spectromtry (UPLC-MS/MS).

SMILES: CN1C(=O)CN=C(c2ccccc2)c2cc(Cl)ccc21 [Diazepam, diazepam, reference compound]
- % change from vehicle (CC50) ([1]; 2.5 mg/kg i.p.): 291%

SMILES: C=C(C)[C@@H]1CCC(C)=C[C@H]1c1c(O)cc(CCCC)cc1O [CBD-C4, Cannabidiol-C4]
- anti-convulsant activity [2]: Therapeutic efficacy was shown

SMILES: C=C(C)[C@@H]1C[C@H](O)C(C)=C[C@H]1c1c(O)cc(CCCC)cc1O [Compound I, (1′R,2′R,4′S)-4-butyl-5′-methyl-2′-(prop-1-en-2-yl)-1′,2′,3′,4′-tetrahydro-[1,1′-biphenyl]-2,4′,6-triol]
- Conc. in brain (individual animals; head: Plasma Conc.) ([3]; brain): 17.696 µM and 200.472 µM and 183.889 µM and 173.842 µM and 212.516 µM and 228.344 µM
- concentration at 30 min ([3]; brain, brain, n=6, read-out: Mean conc. in brain (head: Mean Plasma Conc.)): 169 µM
- concentration at 30 min ([3]; plasma, plasma, n=6, read-out: Mean Plasma Conc.): 255 µM
- Plasma Conc. (individual animals) ([3]; plasma): 379.642 µM and 242.369 µM and 47.322 µM and 295.516 µM and 268.44 µM and 299.404 µM
- tonic hind limb convulsions in treatment group ([1]; 150 mg/kg i.p., 6 animals): did not have any convulsions
- CC50 +/- SEM (current required for 50% of the animals to show seizure behaviour) ([1]; 150 mg/kg i.p., N=6): >131 mA
